# Assay results taken from PMC6706930, “A novel oral micellar fenretinide formulation with enhanced bioavailability and antitumour activity against multiple tumours from cancer stem cells” (Journal of Experimental & Clinical Cancer Research : CR, 2019).
# Where two headings read alike, the source gives them in different places.
# Test: Plasma pharmacokinetics, acute study (single oral administration)
# Type: in vivo, CD1 female mice
# Details: for Cmax / AUC(0-t) / Tmax / HL / Cmax ±SD / AUC 0-last: plasma analyte; for amount of metabolite in plasma in comparison to 4-HPR: study of multiple doses, after Bio-nFeR administration
# Experimental: The experiments were performed in CD1 female mice, 7 weeks of age, (body weight 25 ± 2 g) obtained from Envigo RMS SrL (Udine, Italy). They were maintained under specific-pathogen-free conditions with constant temperature and humidity, according to institutional guidelines regularly checked by a certified veterinarian. Animal experimentation was conducted in conformance with the following laws, regulations, and policies governing the care and use of laboratory animals: Italian Governing Law (D. l. 26/2014; Authorization n.19/2008-A issued March 6, 2008 by the Ministry of Health). Mario Negri Institutional Regulations and Policies providing internal authorizations for persons conducting animal experiments (Quality Management System Certificate –UNI EN ISO 9001:2008 – Reg. N 86121). The experimental protocol was reviewed by the Mario Negri Institute Ethical Committee and approved by the Italian Ministry of Health (Aut. Min. No 489/2016-Pr).
# The pharmacokinetics of oral Bio-nFeR was investigated in comparison to that of the reference formulation NCI-FeR, after single administration of multiple doses and after chronic administrations, daily for 2 weeks or bi-daily for 1 week. Bio-nFeR was reconstituted at 20 mg/mL fenretinide to allow the administration of 200 mg/Kg fenretinide that corresponded to the highest dose. The doses of 100, 50 and 10 mg/Kg were administered by using serial dilution of the 20 mg/mL solution.
# NCI-FeR prepared, as per the NCI instructions, at 11.6% w:w fenretinide:internal capsule components, was diluted with corn oil to obtain the treatment solutions at the concentrations of 20, 15 and 10 mg/mL, corresponding to the administered doses of 200, 150 and 100 mg/Kg respectively.
# The oral pharmacokinetics of Bio-nFeR were investigated in four independent groups of 24 mice, randomized to receive different treatment with the following fenretinide equivalent doses: 10, 50, 100 and 200 mg/Kg. The drug was administered by oral gavage and after treatment, blood samples were taken at 15 and 30 min and at 1, 2, 4, 8/10, 24 and 48 h and collected in heparinized tubes from the retro-orbital plexus of the mice under isoflurane anesthesia. Mice were then sacrificed by cervical dislocation and liver, kidney and brain were removed and immediately frozen in dry-ice for future determination. To obtain plasma, blood was centrifuged at 4000 rpm for 10 min at 4 °C. To evaluate fenretinide and metabolites excretion, urine and faeces were collected over a 0–24 h and 24–48 h periods. The collection was performed in three mice per group of treatment, individually housed into metabolic cages for urine and faeces collection. All the biological samples were stored at − 20 °C until analysis. To compare the absorption of Bio-nFeR to NCI-FeR and to study the bioavailability, another independent groups of 24 mice were randomized to receive an oral dose of 200 mg/Kg of NCI-FeR. Blood samples were taken at the time reported above. Twenty-four hours fractions of urine and faeces were collected in three mice per group of treatment. Plasma and the other biological specimens were stored at − 20 °C until analysis. Chronic study: the oral pharmacokinetic of Bio-nFeR in comparison with NCI-FeR were also investigated after chronic administrations. Mice were divided in three independent groups, randomized to receive a single treatment of 150 mg/Kg or different repeated treatments of 150 mg/Kg, daily for 2 weeks (12 days on and 2 days off), or 100 mg/Kg bi-daily for 1 week (5 days on 2 days off). Bio-nFeR and NCI-FeR were administered by oral gavage, collecting blood samples at 0.5, 1, 2, 4, 8/10 and 24 h, the day of the single treatment and at 0, 1, 2, 4, 8/10, 24 and 48 h after the last dose of both the chronic treatments. The procedures of blood collection, plasma preparation, sacrifice of mice and storing of samples were as reported in acute study. […]
# [1] = female, CD1, mouse, plasma, po, 200 mg/kg, single oral Bio-nFeR, 4-HPR dose 200mg/Kg, Suppl. Table 2 B
# [2] = female, CD1, mouse, plasma, po, 200 mg/kg, single oral NCI-nFeR, 4-HPR dose 200mg/Kg, Suppl. Table 2 B
# [3] = single oral Bio-nFeR 10 mg/kg, Suppl. Table 2 A
# [4] = single oral Bio-nFeR 50 mg/kg, Suppl. Table 2 A
# [5] = single oral Bio-nFeR 100 mg/kg, Suppl. Table 2 A
# [6] = single oral Bio-nFeR 200 mg/kg, Suppl. Table 2 A
# [7] = single oral Bio-nFeR, 4-HPR dose 200mg/Kg, Suppl. Table 2 B
# [8] = single oral NCI-nFeR, 4-HPR dose 200mg/Kg, Suppl. Table 2 B
# [9] = mice, single oral Bio-nFeR 10 mg/kg, Suppl. Table 2 A
# [10] = mice, single oral Bio-nFeR 50 mg/kg, Suppl. Table 2 A
# [11] = mice, single oral Bio-nFeR 100 mg/kg, Suppl. Table 2 A
# [12] = mice, single oral Bio-nFeR 200 mg/kg, Suppl. Table 2 A
HL [3],HL [4],HL [5],HL [6],HL [7],HL [8],Cmax ±SD [9],Cmax ±SD [10],Cmax ±SD [11],Cmax ±SD [12],AUC 0-last [3],Tmax [3],AUC 0-last [4],Tmax [4],AUC 0-last [5],Tmax [5],AUC 0-last [6],Tmax [6],AUC 0-last [7],Cmax ±SD [7],SMILES,other results
7.5 h,7.3 h,6.5 h,7.2 h,7.2 h,6.7 h,,,,,,,,,,,,,,,"CC1=C(/C=C/C(C)=C/C=C/C(C)=C/C(=O)Nc2ccc(O)cc2)C(C)(C)CCC1 [4-HPR, 4-hydroxy (phenyl)retinamide, reference compound]","Cmax (female, CD1, mouse, plasma, po, 10 mg/kg, mice, single oral Bio-nFeR 10 mg/kg, Suppl. Table 2 A): 601 ng/mL; AUC(0-t) (female, CD1, mouse, plasma, po, 10 mg/kg, single oral Bio-nFeR 10 mg/kg, Suppl. Table 2 A): 6750 ng·h/mL; Tmax (female, CD1, mouse, plasma, po, 10 mg/kg, single oral Bio-nFeR 10 mg/kg, Suppl. Table 2 A, read-out: Tmax): 2 h; Cmax (female, CD1, mouse, plasma, po, 50 mg/kg, mice, single oral Bio-nFeR 50 mg/kg, Suppl. Table 2 A): 3650 ng/mL; AUC(0-t) (female, CD1, mouse, plasma, po, 50 mg/kg, single oral Bio-nFeR 50 mg/kg, Suppl. Table 2 A): 39200 ng·h/mL; Tmax (female, CD1, mouse, plasma, po, 50 mg/kg, single oral Bio-nFeR 50 mg/kg, Suppl. Table 2 A, read-out: Tmax): 4 h; Cmax (female, CD1, mouse, plasma, po, 100 mg/kg, mice, single oral Bio-nFeR 100 mg/kg, Suppl. Table 2 A): 5340 ng/mL; AUC(0-t) (female, CD1, mouse, plasma, po, 100 mg/kg, single oral Bio-nFeR 100 mg/kg, Suppl. Table 2 A): 66300 ng·h/mL; Tmax (female, CD1, mouse, plasma, po, 100 mg/kg, single oral Bio-nFeR 100 mg/kg, Suppl. Table 2 A, read-out: Tmax): 4 h; Cmax (female, CD1, mouse, plasma, po, 200 mg/kg, mice, single oral Bio-nFeR 200 mg/kg, Suppl. Table 2 A): 6840 ng/mL; AUC(0-t) (female, CD1, mouse, plasma, po, 200 mg/kg, single oral Bio-nFeR 200 mg/kg, Suppl. Table 2 A): 113000 ng·h/mL; Tmax (female, CD1, mouse, plasma, po, 200 mg/kg, single oral Bio-nFeR 200 mg/kg, Suppl. Table 2 A, read-out: Tmax): 2 h; AUC(0-t) [1]: 113000 ng·h/mL; Cmax [1]: 6840 ng/mL; Tmax (female, CD1, mouse, plasma, po, 200 mg/kg, single oral Bio-nFeR, 4-HPR dose 200mg/Kg, Suppl. Table 2 B, read-out: Tmax): 2 h; AUC(0-t) [2]: 97900 ng·h/mL; Cmax [2]: 8460 ng/mL; Tmax (female, CD1, mouse, plasma, po, 200 mg/kg, single oral NCI-nFeR, 4-HPR dose 200mg/Kg, Suppl. Table 2 B, read-out: Tmax): 4 h; half-life (female, CD1, mouse, plasma, mice, oral Bio-nFeR, different doses, read-out: elimination half-life (converted)): ~7 h"
5.2 h,5.4 h,4.8 h,5.3 h,5.3 h,5.4 h,505.1 ng/mL,2389.1 ng/mL,3109.1 ng/mL,4071.2 ng/mL,4145.3 ng·h/mL,2 h,24372.6 ng·h/mL,4 h,38500.3 ng·h/mL,4 h,58677.2 ng·h/mL,4 h,58677.2 ng·h/mL,4071.2 ng/mL,CC1=C(/C=C/C(C)=C/C=C/C(C)=C/C(=O)Nc2ccc(O)cc2)C(C)(C)CCC1=O [4-oxo-4-HPR],Tmax [7]: 4 h; AUC 0-last [8]: 39875.4 ng·h/mL; Cmax ±SD [8]: 3372.3 ng/mL; Tmax [8]: 4 h; amount of metabolite in plasma in comparison to 4-HPR: about 50%
9.4 h,10.3 h,8.6 h,11.6 h,11.6 h,9.9 h,120.6 ng/mL,778.9 ng/mL,1112.6 ng/mL,1070.5 ng/mL,1750.7 ng·h/mL,4 h,9931.5 ng·h/mL,4 h,15439.7 ng·h/mL,4 h,21449.6 ng·h/mL,4 h,21449.6 ng·h/mL,1070.5 ng/mL,COc1ccc(NC(=O)\C=C(C)/C=C/C=C(C)\C=C\C2=C(C)CCCC2(C)C)cc1 [MPR],Tmax [7]: 4 h; AUC 0-last [8]: 23406.1 ng·h/mL; Cmax ±SD [8]: 1407.0 ng/mL; Tmax [8]: 4 h; amount of metabolite in plasma in comparison to 4-HPR: ~15%
